Experimental data: patent US10239873B2, “7-azaindole or 4,7-diazaindole derivatives as IKKϵ epsilon and TBK1 inhibitor and pharmaceutical composition comprising same” (GREEN CROSS CORPORATION, priority 2015, dated 2019)

Legend:
TBK1 = molecular target: T1, TBK1 (Homo sapiens, UniProt Q9UHD2); assay: ADP-Glo Kinase Assay, inhibition activity on TBK1; type: biochemical
T1 construct: purchased Promega (Invitrogen is also named in the same bracket) V4158; PR8031B; V3991 (not assigned to the two kinases)
T1 sequence (Q9UHD2 1-729): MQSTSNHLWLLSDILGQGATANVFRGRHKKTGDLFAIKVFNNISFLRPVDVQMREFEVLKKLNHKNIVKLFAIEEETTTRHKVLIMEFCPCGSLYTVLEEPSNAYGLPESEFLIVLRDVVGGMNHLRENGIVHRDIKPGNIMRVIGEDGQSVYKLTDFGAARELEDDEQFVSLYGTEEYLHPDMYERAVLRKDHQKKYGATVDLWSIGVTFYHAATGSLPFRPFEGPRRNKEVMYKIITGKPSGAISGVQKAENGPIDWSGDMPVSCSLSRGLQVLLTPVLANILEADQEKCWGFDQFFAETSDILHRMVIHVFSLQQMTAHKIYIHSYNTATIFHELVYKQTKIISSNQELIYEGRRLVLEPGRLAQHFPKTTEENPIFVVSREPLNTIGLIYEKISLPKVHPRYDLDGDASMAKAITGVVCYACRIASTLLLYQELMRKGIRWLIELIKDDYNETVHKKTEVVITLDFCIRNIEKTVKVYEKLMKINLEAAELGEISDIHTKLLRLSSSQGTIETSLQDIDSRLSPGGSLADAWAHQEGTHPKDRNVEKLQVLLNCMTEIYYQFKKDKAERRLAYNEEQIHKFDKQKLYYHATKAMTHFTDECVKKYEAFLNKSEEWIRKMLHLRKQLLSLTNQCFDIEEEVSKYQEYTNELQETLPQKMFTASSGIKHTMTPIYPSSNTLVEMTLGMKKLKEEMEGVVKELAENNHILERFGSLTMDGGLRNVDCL
How it was run: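 In 40 mM Tris pH 7.5 with 20 mM MgCl2 and 0.1 mg/mL BSA, each enzyme (IKKε or TBK1 kinase system) was run according to the manufacturer's protocol. ADP formed was detected by ADP-Glo luminescence.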

IKKε = molecular target: T2, IKKε (Homo sapiens, UniProt Q14164); assay: ADP-Glo Kinase Assay, inhibition activity on IKKε; type: biochemical
T2 construct: purchased Promega and/or Invitrogen V4158; PR8031B; V3991 (not assigned to the two kinases)
T2 sequence (Q14164 1-716): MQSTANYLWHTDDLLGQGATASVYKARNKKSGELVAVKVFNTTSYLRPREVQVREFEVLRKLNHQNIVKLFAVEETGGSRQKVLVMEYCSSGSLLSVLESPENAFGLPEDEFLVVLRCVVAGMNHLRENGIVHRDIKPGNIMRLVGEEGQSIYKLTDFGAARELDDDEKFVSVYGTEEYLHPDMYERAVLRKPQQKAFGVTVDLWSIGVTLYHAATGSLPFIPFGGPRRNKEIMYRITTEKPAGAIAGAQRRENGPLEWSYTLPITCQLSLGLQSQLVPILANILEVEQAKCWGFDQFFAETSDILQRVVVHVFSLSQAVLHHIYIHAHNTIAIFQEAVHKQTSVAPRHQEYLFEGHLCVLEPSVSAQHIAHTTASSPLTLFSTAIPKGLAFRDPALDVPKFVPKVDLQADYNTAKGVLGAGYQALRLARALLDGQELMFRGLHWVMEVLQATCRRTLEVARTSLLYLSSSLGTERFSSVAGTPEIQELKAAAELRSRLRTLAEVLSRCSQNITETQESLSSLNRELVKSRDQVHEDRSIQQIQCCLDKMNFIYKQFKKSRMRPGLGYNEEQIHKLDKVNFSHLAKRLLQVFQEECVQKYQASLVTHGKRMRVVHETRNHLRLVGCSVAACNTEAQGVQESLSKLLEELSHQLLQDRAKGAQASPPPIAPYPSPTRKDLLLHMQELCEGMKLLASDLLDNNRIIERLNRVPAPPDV
Description: Inhibition activities on IKKϵ and TBK1 were evaluated using the compounds of Examples 1 to 250.
The inhibition activities on IKKϵ and TBK1 were measured by a luminometer, IKKϵ/TBK1 Kinase Enzyme System (Promega, Ca# V4158; Invitrogen, PR8031B, Promega, Ca# V3991) and ADP-Glo Kinase Assay using ADP-Glo™ Kinase Analysis Kit (Promega, Ca# V9101) and a kinase reaction buffer [40 mM Tris(pH 7.5), 20 mM MgCl2, 0.1 mg/mL BSA] in accordance with the manufacturer's protocol.

Row | Compound | IC50 (TBK1) [nM] | IC50 (IKKε) [nM]
1 | CC(C)NC(=O)N1CC=C(c2c[nH]c3ncc(-c4ccc(CN5CCN(C)CC5)o4)cc23)CC1 [Example 35, N-isopropyl-4-(5-(5-((4-methylpiperazin-1-yl)methyl)furan-2-yl)-1H-pyrrolo[2,3-b]pyridin-3-yl)-5,6-dihydropyridine-1(2H)-carboxamide] | 18 | 110
2 | CN1CC=C(c2c[nH]c3ncc(-c4ccc(CN5CCOCC5)s4)cc23)CC1 [Example 1, 4-((5-(3-(1-Methyl-1,2,3,6-tetrahydropyridin-4-yl)-1H-pyrrolo[2,3-b]pyridin-5-yl)thiophen-2-yl)methyl)morpholine] | 6860 | > 10000
3 | Cc1nnc(-c2cnc3[nH]cc(C4=CCN(C(=O)OC(C)(C)C)CC4)c3c2)s1 [Example 170, tert-Butyl 4-(5-(5-methyl-1,3,4-thiadiazol-2-yl)-1H-pyrrolo[2,3-b]pyridin-3-yl)-5,6-dihydropyridine-1(2H)-carboxylate] | 32 | 280
4 | CC(C)NC(=O)N1CC=C(c2c[nH]c3ncc(-c4ccc(CN5CCCC5)o4)cc23)CC1 [Example 27, N-isopropyl-4-(5-(5-(pyrrolidin-1-ylmethyl)furan-2-yl)-1H-pyrrolo[2,3-b]pyridin-3-yl)-5,6-dihydropyridine-1(2H)-carboxamide] | 570 | 1980
5 | CCCN1CC=C(c2c[nH]c3ncc(-c4ccc(CN5CCOCC5)s4)cc23)CC1 [Example 7, 4-((5-(3-(1-Propyl-1,2,3,6-tetrahydropyridin-4-yl)-1H-pyrrolo[2,3-b]pyridin-5-yl)thiophen-2-yl)methyl)morpholine] | 1910 | 4250
6 | CN1CCN(Cc2ccc(-c3cnc4[nH]cc(C5=CCN(C(=O)NC6CC6)CC5)c4c3)cc2)CC1 [Example 46, N-cyclopropyl-4-(5-(4-((4-methylpiperazin-1-yl)methyl)phenyl)-1H-pyrrolo[2,3-b]pyridin-3-yl)-5,6-dihydropyridine-1(2H)-carboxamide] | 14 | 25
7 | CC(=O)Nc1ccc(-c2cnc3[nH]cc(C4=CCN(C(=O)NC(C)C)CC4)c3c2)cc1 [Example 17, 4-(5-(4-Acetamidophenyl)-1H-pyrrolo[2,3-b]pyridin-3-yl)-N-isopropyl-3,6-dihydropyridine-1(2H)-carboxamide] | 7.8 | 21
8 | O=C(c1cccs1)N1CC=C(c2c[nH]c3ncc(Nc4ccc(CN5CCOCC5)cc4)cc23)CC1 [Example 250, (4-(5-(4-(morpholinomethyl)phenylamino)-1H-pyrrolo[2,3-b]pyridin-3-yl)-5,6-dihydropyridin-1(2H)-yl)(thiophen-2-yl)methanone] | 170 | 840
9 | CCC1C=C(c2c[nH]c3ncc(-c4ccc(CN5CCOCC5)cc4)cc23)CCN1C(=O)NC(C)C (stereo not drawn) [Example 112, 6-Ethyl-N-isopropyl-4-(5-(4-(morpholinomethyl)phenyl)-1H-pyrrolo[2,3-b]pyridin-3-yl)-3,6-dihydropyridine-1(2H)-carboxamide] | 56 | 62
10 | CCN1CC=C(c2c[nH]c3ncc(-c4ccc(CN5CCOCC5)s4)cc23)CC1 [Example 6, 4-((5-(3-(1-Ethyl-1,2,3,6-tetrahydropyridin-4-yl)-1H-pyrrolo[2,3-b]pyridin-5-yl)thiophen-2-yl)methyl)morpholine] | 4080 | 8900
11 | COc1ccc(-c2cnc3[nH]cc(C4CCN(C(=O)NC(C)C)CC4)c3c2)cc1OC [Example 235, 4-(5-(3,4-dimethoxyphenyl)-1H-pyrrolo[2,3-b]pyridin-3-yl)-N-isopropylpiperidine-1-carboxamide] | > 10000 | > 10000

Now from value to compound:

Row | IC50 (TBK1) [nM] | IC50 (IKKε) [nM] | Compound
12 | 29 | 440 | COc1ccc(-c2cnc3[nH]cc(C4=CCN(C(=O)NC5CCCC5)CC4)c3c2)cc1S(=O)(=O)N1CCOCC1 [Example 63, N-cyclopentyl-4-(5-(4-methoxy-3-(morpholinosulfonyl)phenyl)-1H-pyrrolo[2,3-b]pyridin-3-yl)-5,6-dihydropyridine-1(2H)-carboxamide]
13 | 11 | > 10000 | CC(C)NC(=O)N1CC=C(c2c[nH]c3ncc(-c4cccc(F)c4)cc23)CC1 [Example 15, 4-(5-(3-Fluorophenyl)-1H-pyrrolo[2,3-b]pyridin-3-yl)-N-isopropyl-3,6-dihydropyridine-1(2H)-carboxamide]
14 | 3.6 | 27 | CC(C)NC(=O)N1CC=C(c2c[nH]c3ncc(-c4ccc(CN5CCN(C)CC5)s4)cc23)C(C)C1 (stereo not drawn) [Example 125, N-isopropyl-5-methyl-4-(5-(5-((4-methylpiperazin-1-yl)methyl)thiophen-2-yl)-1H-pyrrolo[2,3-b]pyridin-3-yl)-5,6-dihydropyridine-1(2H)-carboxamide]
15 | 4.4 | 13 | CC1C=C(c2c[nH]c3ncc(-c4ccc(CN5CCN(C)CC5)s4)cc23)CCN1C(=O)NC1CCCC1 (stereo not drawn) [Example 102, N-cyclopentyl-2-methyl-4-(5-(5-((4-methylpiperazin-1-yl)methyl)thiophen-2-yl)-1H-pyrrolo[2,3-b]pyridin-3-yl)-5,6-dihydropyridine-1(2H)-carboxamide]
16 | 7.4 | 14 | CC1C=C(c2c[nH]c3ncc(-c4ccc(CN5CCN(C)CC5)cc4)cc23)CCN1C(=O)NC1CC1 (stereo not drawn) [Example 95, N-cyclopropyl-2-methyl-4-(5-(4-((4-methylpiperazin-1-yl)methyl)phenyl)-1H-pyrrolo[2,3-b]pyridin-3-yl)-5,6-dihydropyridine-1(2H)-carboxamide]
17 | 35 | 35 | CC(C)NC(=O)N1CC=C(c2c[nH]c3ncc(-c4ccc(N)c5c4CNC5=O)cc23)CC1 [Example 39, 4-(5-(7-Amino-1-oxoisoindolidin-4-yl)-1H-pyrrolo[2,3-b]pyridin-3-yl)-N-isopropyl-3,6-dihydropyridine-1(2H)-carboxamide]
18 | 10 | 20 | CCN1CCN(Cc2ccc(-c3cnc4[nH]cc(C5=CCN(C(=O)NC(C)C)CC5)c4c3)cc2)CC1 [Example 22, 4-(5-(4-((4-Ethylpiperazin-1-yl)methyl)phenyl)-1H-pyrrolo[2,3-b]pyridin-3-yl)-N-isopropyl-3,6-dihydropyridine-1(2H)-carboxamide]
19 | 35 | 130 | CCC(CC)NC(=O)N1CCC(c2c[nH]c3ncc(-c4ccc(CN5CCOCC5)s4)cc23)=CC1C (stereo not drawn) [Example 92, 6-Methyl-4-(5-(5-(morpholinomethyl)thiophen-2-yl)-1H-pyrrolo[2,3-b]pyridin-3-yl)-N-(pentan-3-yl)-3,6-dihydropyridine-1(2H)-carboxamide]
20 | 340 | 500 | CN(C)S(=O)(=O)c1ccc(-c2cnc3[nH]cc(C4=CCN(C(=O)OC5CCCC5)CC4)c3c2)cc1 [Example 179, Cyclopentyl 4-(5-(4-(N,N-dimethylsulfamoyl)phenyl)-1H-pyrrolo[2,3-b]pyridin-3-yl)-5,6-dihydropyridine-1(2H)-carboxylate]
21 | 47 | 220 | CCC(CC)NC(=O)N1CC=C(c2c[nH]c3ncc(-c4ccc(CN5CCN(C)CC5)s4)cc23)CC1 [Example 41, 4-(5-(5-((4-Methylpiperazin-1-yl)methyl)thiophen-2-yl)-1H-pyrrolo[2,3-b]pyridin-3-yl)-N-(pentan-3-yl)-3,6-dihydropyridine-1(2H)-carboxamide]
